# Test results published in patent publication US8658353B2, “Liver cell toxicity assay” (Corning Incorporated, priority 2008, dated 2014).
# Columns and labels:
# primary liver cells [1] = experiment: Label-free biosensor DMR assay, direct exposure of primary liver cells in biosensor sandwich culture; format: cell-based, Human; conditions: for DMR signal upon exposure to compound alone: all doses examined
# Protocol: Collagen coating of the biosensor microplates was achieved by dispensing 10 μl collagen I (10 μg/ml) into each well, and followed by slow drying over night under controlled vacuum condition. This coating process takes advantage of slow self-assembly of collagen I, and results in an un-even coating consisting of a series of clusters of collagen I, thus providing microscale or nanoscale topology of ECM materials to liver cells to form Epic® 384well biosensor microplate collagen coated.
# The RWG biosensor exploits its evanescent wave to measure ligand-induced DMR signals in cells. The evanescent wave extends into the cells and exponentially decays over distance, leading to a characteristic sensing volume of ˜150 nm, implying that any optical response mediated through the receptor activation only represents an average over the portion of the cell that the evanescent wave is sampling. The aggregation of many cellular events downstream the receptor activation determines the kinetics and amplitudes of a ligand-induced DMR.
# (§1) The cell responses were recorded continuously.
# [2] = test system: human lung cancer cell line A549; experiment: Label-free biosensor DMR assay of A549 cells exposed to 2 mM H2O2 with or without thrombin pretreatment; format: cell-based
# Protocol: The kinetic responses were normalized at the time point 2 min before the addition of H2O2.
# as §1
# The large amplitude of the second N-DMR signal indicates the significant loss of local biomass density within the detection zone of the biosensor, indicative of cell apoptosis which leads to the release of cellular matters from the bottom portion of cells cultured on the biosensor surface. […] The onset time for the second N-DMR event is delayed by at least 15 min.
# primary liver cells [3] = experiment: Label-free biosensor DMR assay, 1 mM H2O2 as amplifying marker after compound pretreatment of primary liver cells; conditions: then 1 mM H2O2
molecule,measurement,setting,value
"OO [H2O2, hydrogen peroxide]",DMR response (change in local biomass),primary liver cells [1]; 1 mM H2O2,did not trigger any significant change in local biomass
same,DMR response,primary liver cells [1]; 5 mM H2O2,significant negative DMR (N-DMR) signal
same,onset time for the N-DMR signal,primary liver cells [1]; after treatment with 5 mM H2O2,around 30 min
same,DMR signal of A549 cells,"[2]; 2 mM H2O2, no thrombin pretreatment","complicated DMR signal, consisting of four phases"
C[S+]([O-])c1ccc(-c2nc(-c3ccncc3)c(-c3ccc(F)cc3)[nH]2)cc1 (centres unmarked) [SB203580],H2O2-induced DMR signal after pretreatment,"primary liver cells [3]; high doses of SB203580, pretreatment ~1-4 hrs",responded to 1 mM H2O2 exposure with a N-DMR
same,DMR signal upon exposure to compound alone,primary liver cells [1]; 625 nanomolar up to 10000 nanomolar,did not result in any significant DMR signal
"CO[C@H]1/C=C/O[C@@]2(C)Oc3c(C)c(O)c4c(O)c(c(/C=N/N5CCN(C)CC5)c(O)c4c3C2=O)NC(=O)/C(C)=C\C=C\[C@H](C)[C@H](O)[C@@H](C)[C@@H](O)[C@@H](C)[C@H](OC(C)=O)[C@@H]1C [rifampin, Rifampin]",H2O2-induced DMR signal after pretreatment,primary liver cells [3]; rifampin pretreatment ~1-4 hrs,rifampin dose dependent N-DMR
same,DMR signal upon exposure to compound alone,primary liver cells [1]; rifampin 625 nM up to 40000 nM,did not result in any significant loss in local biomass density or cause any significant DMR signal
thrombin,delay of onset time for the second N-DMR event,"[2]; thrombin pretreatment 1 to 16 unit/ml, then 2 mM H2O2",at least 15 min
same,"potency to alter the H2O2 response, based on amplitudes of the rapid P-DMR event","[2]; thrombin pretreatment 1 hr, then 2 mM H2O2, said to correspond to EC50 for endogenous PAR1 activation",~4 unit/ml
same,effect on H2O2-induced A549 apoptosis,"[2]; thrombin pretreatment, then 2 mM H2O2",protective of H2O2-induced A549 apoptosis
